Data: US11607421B2, “Ethanolamine-based lipid biosynthetic compounds, method of making and use thereof” (Metanoi Therapeutics, Inc., priority 2016, dated 2023)
Values after ≈ are worked out from the molar mass of the structure shown.

Legend:
[1] = system: pRb, Cdk4, Cdk2, p21, c-PARP, Bim, Bcl-2; experiment: Immunoblot of cell lysates; assay type: cell-based, human; details: PC-3 cells, 2 mg/ml Etn for 48 h
Description: OCR was measured using an oxygen electrode.
Proteins were resolved by polyacrylamide gel electrophoresis and transferred onto polyvinylidene difluoride membranes (Millipore, Billerica, Mass., USA). The membranes were blocked in Tris-buffered saline containing 0.05% Tween-20 and 5% fat-free dry milk and incubated first with primary antibodies and then with horseradish peroxidase-conjugated secondary antibodies. Specific proteins were visualized with enhanced chemiluminescence detection reagent according to the manufacturer's instructions (Pierce Biotechnology, Rockford, Ill., USA).

PC-3 cells [2] = experiment: Glucose and glutamine contents in cultured cells (LC-MS/MS); details: 2 mg/ml Etn for 48 h vs control cells
in vivo = experiment: in vivo; set-up: species or system SD rats; details: SD, rat, po, 40 mg/kg
Source text: These formulations differ in pH and/or acid used to adjust the pH.

DU145 [3] = experiment: DU145 prostate tumor xenograft; details: 40 mg/kg Etn, oral gavage, 4 weeks
PC-3 cells [4] = experiment: Intracellular levels of Etn and PhosE by LC-MS/MS; assay type: cell-based, human; details: 1 mg/ml, 48 h, pH 7.4
DU145 [5] = experiment: MTT cell proliferation assay; assay type: cell-based, human; details: 0.5 mg/ml Etn, 48 h; range given for PC-3, DU145 and C4-2B together
Description: (§1) After 48 h, drug containing medium was replaced by medium containing MTT (tetrazolium bromide) at a concentration of 0.5 mg/ml. The yellow tetrazolium salt is reduced to insoluble purple formazan by viable cells. After 4 h of incubation in dark, formazan crystals produced by viable cells were dissolved by 200 μl DMSO and the amount of formazan crystals formed was quantified by recording the absorbance at 570 nm using multi-well plate reader. […] After 10 days, colonies were fixed with 4% formaldehyde, stained with crystal violet and counted.

CYP1A2 = CYP1A2 (Homo sapiens, UniProt P05177); experiment: CYP inhibition in human liver microsomes
Sequence of CYP1A2 (P05177 whole entry): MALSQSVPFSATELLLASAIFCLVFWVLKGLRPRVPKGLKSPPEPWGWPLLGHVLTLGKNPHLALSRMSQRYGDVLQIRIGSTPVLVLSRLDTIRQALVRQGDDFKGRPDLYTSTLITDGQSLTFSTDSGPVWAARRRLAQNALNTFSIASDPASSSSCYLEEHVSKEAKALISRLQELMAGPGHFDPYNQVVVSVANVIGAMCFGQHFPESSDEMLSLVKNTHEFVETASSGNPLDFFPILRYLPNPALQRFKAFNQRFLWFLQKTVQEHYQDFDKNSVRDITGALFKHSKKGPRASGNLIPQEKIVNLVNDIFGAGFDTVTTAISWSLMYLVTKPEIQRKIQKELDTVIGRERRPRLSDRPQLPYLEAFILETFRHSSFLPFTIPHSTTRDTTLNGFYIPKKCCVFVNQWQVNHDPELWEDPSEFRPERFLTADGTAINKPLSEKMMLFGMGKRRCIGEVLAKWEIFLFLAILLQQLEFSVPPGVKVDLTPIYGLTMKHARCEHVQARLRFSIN

MDA-MB-468 = experiment: MTT cell proliferation assay; assay type: cell-based; details: Homo sapiens, 48 h, pH 7.4
Description: as §1

CFPAC-1 = experiment: MTT cell proliferation assay; assay type: cell-based; details: Homo sapiens, 48 h, pH 7.4
Description: as §1

OVCAR-5 = experiment: MTT cell proliferation assay; assay type: cell-based; details: Homo sapiens, 48 h, pH 7.4
Description: as §1

C4-2B = experiment: MTT cell proliferation assay; assay type: cell-based; details: 0.5 mg/ml Etn, 48 h; range given for PC-3, DU145 and C4-2B together
Description: as §1

CYP2A6 = CYP2A6 (Homo sapiens, UniProt P11509); experiment: CYP inhibition in human liver microsomes
Sequence of CYP2A6 (P11509 whole entry): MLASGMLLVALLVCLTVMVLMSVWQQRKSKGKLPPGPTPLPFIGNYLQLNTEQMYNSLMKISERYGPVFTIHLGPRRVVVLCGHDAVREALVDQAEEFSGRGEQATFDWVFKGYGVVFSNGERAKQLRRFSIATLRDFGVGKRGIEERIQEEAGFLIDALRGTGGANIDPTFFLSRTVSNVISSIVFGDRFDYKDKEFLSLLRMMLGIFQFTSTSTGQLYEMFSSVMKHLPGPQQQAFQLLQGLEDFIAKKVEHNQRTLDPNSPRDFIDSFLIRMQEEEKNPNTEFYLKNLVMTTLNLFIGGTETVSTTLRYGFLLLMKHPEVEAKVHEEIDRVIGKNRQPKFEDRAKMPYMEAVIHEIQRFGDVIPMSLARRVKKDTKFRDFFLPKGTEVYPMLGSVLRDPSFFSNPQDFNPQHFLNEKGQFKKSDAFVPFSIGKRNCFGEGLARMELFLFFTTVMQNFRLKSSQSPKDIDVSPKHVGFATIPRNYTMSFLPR

CYP2C8 = CYP2C8 (Homo sapiens, UniProt P10632); experiment: CYP inhibition in human liver microsomes
Sequence of CYP2C8 (P10632 whole entry): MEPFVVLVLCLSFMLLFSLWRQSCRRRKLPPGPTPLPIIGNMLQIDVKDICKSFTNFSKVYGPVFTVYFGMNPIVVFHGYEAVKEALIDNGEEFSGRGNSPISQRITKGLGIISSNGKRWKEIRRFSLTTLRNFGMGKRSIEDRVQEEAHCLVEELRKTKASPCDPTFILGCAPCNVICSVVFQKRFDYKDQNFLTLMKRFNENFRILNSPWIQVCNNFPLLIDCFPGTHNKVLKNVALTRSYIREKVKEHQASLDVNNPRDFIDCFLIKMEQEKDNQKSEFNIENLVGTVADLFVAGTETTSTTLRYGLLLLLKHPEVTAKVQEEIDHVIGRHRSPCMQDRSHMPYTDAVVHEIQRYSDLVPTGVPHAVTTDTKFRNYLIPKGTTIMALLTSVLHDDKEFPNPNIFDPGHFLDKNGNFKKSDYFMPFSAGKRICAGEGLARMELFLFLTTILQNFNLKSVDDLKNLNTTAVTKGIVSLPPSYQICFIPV

With `NCCO` [Etn, monoethanolamine] the “protein expression of apoptosis regulators” value [1] was “an increase in protein expression of proapoptotic markers (c-PARP and Bim) and a decrease in antiapoptotic molecules (Bcl-2)”, the “protein expression of cell-cycle regulators” value [1] was “downregulated protein expression of pRb, Cdk4, and Cdk2, and upregulated p21 expression” and the “glucose and glutamine contents” value (PC-3 cells [2]) was “significantly reduced”. The Tmax (in vivo; female, pH 5) was 19.8 min, the AUC(0-t) (in vivo; female, pH 5, AUClast) was 33.8 µg·h/mL and the Cmax (in vivo; female, pH 5, Cmax) was 24.1 µg/mL. It also gave a Tmax (in vivo; female, pH 7.4) of 19.8 min, an AUC(0-t) (in vivo; female, pH 7.4, AUClast) of 29 µg·h/mL and a Cmax (in vivo; female, pH 7.4, Cmax) of 25 µg/mL. For the same compound, the Tmax (in vivo; male, pH 5) was 19.8 min, the AUC(0-t) (in vivo; male, pH 5, AUClast) was 29.5 µg·h/mL and the Cmax (in vivo; male, pH 5, Cmax) was 27.1 µg/mL. It also gave a Tmax (in vivo; male, pH 7.4) of 19.8 min, an AUC(0-t) (in vivo; male, pH 7.4, AUClast) of 27.3 µg·h/mL and a Cmax (in vivo; male, pH 7.4, Cmax) of 23.7 µg/mL. For the same compound, the “reduction in tumor volume” value (DU145 [3]) was about 42%, the “reduction in tumor weight” value (DU145 [3]) was about 29% and the “increase in intracellular PhosE levels compared to control cells” value (PC-3 cells [4]) was about 40 fold. The reduction of survival (DU145 [5]) was 30-52%, the IC50 (CYP1A2) was over 100 µM and the IC50 (MDA-MB-468) was 550 mg/L (≈ 9 mM). The IC50 (CFPAC-1) was 1900 mg/L (≈ 31.1 mM), the IC50 (OVCAR-5) was 290 mg/L (≈ 4.75 mM) and the reduction of survival (C4-2B) was 30-52%. The IC50 (CYP2A6) was over 100 µM and the IC50 (CYP2C8) was over 100 µM.
